Experimental data as given in US20070149465A1, “COMPOSITIONS AND METHODS FOR PREVENTION AND TREATMENT OF CACHEXIA” (priority 2005, published 2007).

System: AH-inoculated rats
Experiment: Rat AH130 Ascites Hepatoma Model of Cancer Cachexia, AH-inoculated rats
Type: in vivo, female Wistar rats
Experimental: Following the method of Busquets et al (Busquets S, et al: Cancer Res 64:6725-31, 2004), female Wistar rats were inoculated (Day 0) intra-peritoneally (i.p.) with 2×10^7 cells/animal of Yoshida AH-130 ascites hepatoma (AH) cells. Control animals were inoculated with an equivalent amount of sterile saline solution. […] The animals were sacrificed on Day 5. Upon sacrifice, wet weights of heart and gastrocnemius muscle were determined. Carcass (after gastrocnemius, heart, and ascites removal) weight was also determined upon sacrifice.
Treatment Group=Inoculation Type/Vehicle, or Treatment Group=Inoculation Type/F(x)R(y) where, Inoculation Type is either AH or Saline, F is formoterol fumarate, R is roxithromycin, and the parenthetical values are formoterol fumarate and roxithromycin doses (i.p. in mg/kg).

[1] = Exp 1 Group 4, AH, F 0, R 5 mg/kg i.p., Day 5, normalized to 100 g Day 5 Total Body Weight
[2] = Exp 4 Group 21, AH, F 0, R 50 mg/kg i.p., Day 5, sample weight normalized to 100 g Day 5 Total Body Weight
[3] = Experiment 4, AH/F(0)R(50) group

CC[C@H]1OC(=O)[C@H](C)[C@@H](O[C@H]2C[C@@](C)(OC)[C@@H](O)[C@H](C)O2)[C@H](C)[C@@H](O[C@@H]2O[C@H](C)C[C@H](N(C)C)[C@H]2O)[C@](C)(O)C[C@@H](C)/C(=N\OCOCCOC)[C@H](C)[C@@H](O)[C@]1(C)O [roxithromycin]
Carcass Weights Mean [1]: 94.35 g
Gastrocnemius Weights Mean [1]: 0.493 g
Heart Weights Mean [1]: 0.320 g
Carcass Mean [2]: 94.1
Gastrocnemius Mean [2]: 0.500
Heart Mean [2]: 0.338
gastrocnemius muscle loss compared with AH/vehicle group (Experiment 1, AH/F(0)R(5) group): approximately the same amount
gastrocnemius muscle weights compared with AH/vehicle group [3]: significantly larger
gastrocnemius weights compared with AH/F(1)R(0) group [3]: essentially identical
gastrocnemius weights compared with AH/F(1)R(50) group [3]: slightly less
muscle wasting associated with the AH rat model (summary of Experiments 1-4): prevents muscle wasting
preventing AH-induced gastrocnemius muscle loss, roxithromycin alone compared with formoterol fumarate alone (summary of Experiments 1-4): effective as formoterol fumarate alone
